Assay results: ChEMBL document CHEMBL1149774, “Synthesis of N-(5,7-diamino-3-phenyl-quinoxalin-2-yl)-3,4,5-substituted anilines and N-[4[(5,7-diamino-3-phenylquinoxalin-2-yl)amino]benzoyl]-l-glutamic acid diethyl ester: evaluation of in vitro anti-cancer and anti-folate activities” (Eur J Med Chem, 2008)

Key:
Format in all cases: functional
[1] = test system: A549; assay: Growth inhibition of human A549 cells after 48 hrs by SRB staining method; conditions: A549, 48 h
[2] = test system: SK-MEL-5; assay: Growth inhibition of human SK-MEL-5 cells after 48 hrs by SRB staining method; conditions: SK-MEL-5, 48 h
[3] = test system: K562; assay: Growth inhibition of human K562 cells after 48 hrs by SRB staining method; conditions: K562, 48 h
[4] = test system: UACC-62; assay: Growth inhibition of human UACC62 cells after 48 hrs by SRB staining method; conditions: UACC-62, 48 h
[5] = test system: SNB-19; assay: Growth inhibition of human SNB19 cells after 48 hrs by SRB staining method; conditions: SNB-19, 48 h
[6] = test system: LOX IMVI; assay: Growth inhibition of human LOX IMVI cells after 48 hrs by SRB staining method
[7] = test system: NCI-H460; assay: Growth inhibition of human NCI-H460 cells after 48 hrs by SRB staining method; conditions: NCI-H460, 48 h
[8] = test system: ACHN; assay: Growth inhibition of human ACHN cells after 48 hrs by SRB staining method
[9] = test system: NCI-H522; assay: Growth inhibition of human NCI-H522 cells after 48 hrs by SRB staining method; conditions: NCI-H522, 48 h
[10] = test system: SR; assay: Growth inhibition of human SR cells after 48 hrs by SRB staining method
[11] = test system: 786-0; assay: Growth inhibition of human 786-0 cells after 48 hrs by SRB staining method; conditions: 786-0, 48 h
[12] = test system: SF-268; assay: Growth inhibition of human SF268 cells after 48 hrs by SRB staining method; conditions: SF-268, 48 h
[13] = test system: EKVX; assay: Growth inhibition of human EKVX cells after 48 hrs by SRB staining method
[14] = test system: NCI-H322M; assay: Growth inhibition of human NCI-H322M cells after 48 hrs by SRB staining method
[15] = test system: RPMI-8226; assay: Growth inhibition of human RPMI8226 cells after 48 hrs by SRB staining method; conditions: RPMI-8226, 48 h
[16] = Growth inhibition of human HS 578T cells after 48 hrs by SRB staining method
[17] = test system: HCT-15; assay: Growth inhibition of human HCT15 cells after 48 hrs by SRB staining method; conditions: HCT-15, 48 h
[18] = test system: RXF 393; assay: Growth inhibition of human RXF393 cells after 48 hrs by SRB staining method; conditions: RXF 393, 48 h
[19] = test system: HOP-62; assay: Growth inhibition of human HOP62 cells after 48 hrs by SRB staining method; conditions: HOP-62, 48 h
[20] = test system: SK-MEL-28; assay: Growth inhibition of human SK-MEL-28 cells after 48 hrs by SRB staining method; conditions: SK-MEL-28, 48 h
[21] = test system: NCI/ADR-RES; assay: Growth inhibition of human NCI/ADR-RES cells after 48 hrs by SRB staining method
[22] = test system: OVCAR-8; assay: Growth inhibition of human OVCAR8 cells after 48 hrs by SRB staining method; conditions: OVCAR-8, 48 h
[23] = test system: NCI-H23; assay: Growth inhibition of human NCI-H23 cells after 48 hrs by SRB staining method; conditions: NCI-H23, 48 h
[24] = test system: NCI-H226; assay: Growth inhibition of human NCI-H226 cells after 48 hrs by SRB staining method; conditions: NCI-H226, 48 h
[25] = test system: SW-620; assay: Growth inhibition of human SW620 cells after 48 hrs by SRB staining method; conditions: SW-620, 48 h
[26] = test system: DU-145; assay: Growth inhibition of human DU145 cells after 48 hrs by SRB staining method; conditions: DU-145, 48 h
[27] = test system: SN12C; assay: Growth inhibition of human SN12C cells after 48 hrs by SRB staining method
[28] = test system: A498; assay: Growth inhibition of human A498 cells after 48 hrs by SRB staining method; conditions: A498, 48 h
[29] = test system: U-251; assay: Growth inhibition of human U251 cells after 48 hrs by SRB staining method; conditions: U-251, 48 h
[30] = test system: SK-MEL-2; assay: Growth inhibition of human SK-MEL-2 cells after 48 hrs by SRB staining method; conditions: SK-MEL-2, 48 h
[31] = test system: SK-OV-3; assay: Growth inhibition of human SKOV3 cells after 48 hrs by SRB staining method; conditions: SK-OV-3, 48 h
[32] = test system: KM12; assay: Growth inhibition of human KM12 cells after 48 hrs by SRB staining method; conditions: KM12, 48 h
[33] = test system: UO-31; assay: Growth inhibition of human UO31 cells after 48 hrs by SRB staining method; conditions: UO-31, 48 h
[34] = read-out: pLC50 (the source's name) (converted)

COc1cc(Nc2nc3cc(N)cc(N)c3nc2-c2ccccc2)cc(OC)c1
GI50 [1]: 20 µM
CC50 [1, 34]: > 100 µM
TGI ([1]; read-out: pTGI (converted)): > 100 µM
GI50 [2]: 10.5 µM
LC50 [2]: 87.1 µM
TGI ([2]; read-out: pTGI (converted)): 30.2 µM
GI50 [3]: 27.5 µM
CC50 [3, 34]: > 100 µM
TGI ([3]; read-out: pTGI (converted)): > 100 µM
GI50 [4]: 7.41 µM
LC50 [4]: 61.7 µM
TGI ([4]; read-out: pTGI (converted)): 23.4 µM
GI50 [5]: 57.5 µM
LC50 [5]: > 100 µM
TGI ([5]; read-out: pTGI (converted)): > 100 µM
GI50 [6]: 15.1 µM
LC50 [6]: > 100 µM
TGI ([6]; read-out: pTGI (converted)): 50.1 µM
GI50 [7]: 7.94 µM
LC50 (concentration killing 50% of cells) [7]: > 100 µM
TGI ([7]; read-out: pTGI (converted)): 52.5 µM
GI50 [8]: 5.62 µM
CC50 [8, 34]: > 100 µM
TGI ([8]; read-out: pTGI (converted)): 83.2 µM
GI50 [9]: 9.55 µM
LC50 [9]: 85.1 µM
TGI ([9]; read-out: pTGI (converted)): 28.8 µM
GI50 [10]: 5.62 µM
CC50 [10, 34]: > 100 µM
TGI ([10]; read-out: pTGI (converted)): > 100 µM
GI50 [11]: 17.8 µM
CC50 [11, 34]: > 100 µM
TGI ([11]; read-out: pTGI (converted)): 51.3 µM
GI50 [12]: 5.62 µM
CC50 [12, 34]: > 100 µM
TGI ([12]; read-out: pTGI (converted)): 56.2 µM
GI50 [13]: 13.2 µM
CC50 [13, 34]: > 100 µM
TGI ([13]; read-out: pTGI (converted)): 64.6 µM
GI50 [14]: 13.8 µM
LC50 [14]: > 100 µM
TGI ([14]; read-out: pTGI (converted)): 58.9 µM
GI50 [15]: 1.26 µM
CC50 [15, 34]: 32.4 µM
TGI ([15]; read-out: pTGI (converted)): 10.5 µM
GI50 [16]: 11 µM
CC50 [16, 34]: > 100 µM
TGI ([16]; read-out: pTGI (converted)): 63.1 µM
GI50 [17]: 20 µM
LC50 [17]: > 100 µM
TGI ([17]; read-out: pTGI (converted)): > 100 µM
GI50 [18]: 3.16 µM
CC50 [18, 34]: 95.5 µM
TGI ([18]; read-out: pTGI (converted)): 18.6 µM
GI50 [19]: 19.5 µM
LC50 [19]: > 100 µM
TGI ([19]; read-out: pTGI (converted)): 53.7 µM
GI50 [20]: 14.8 µM
CC50 [20, 34]: > 100 µM
TGI ([20]; read-out: pTGI (converted)): 89.1 µM
GI50 [21]: 12.9 µM
CC50 [21, 34]: > 100 µM
TGI ([21]; read-out: pTGI (converted)): 74.1 µM
GI50 [22]: 6.17 µM
CC50 [22, 34]: > 100 µM
TGI ([22]; read-out: pTGI (converted)): 46.8 µM
GI50 [23]: 27.5 µM
LC50 [23]: > 100 µM
TGI ([23]; read-out: pTGI (converted)): > 100 µM
GI50 [24]: 2.88 µM
LC50 [24]: > 100 µM
TGI ([24]; read-out: pTGI (converted)): 33.1 µM
GI50 [25]: 26.9 µM
CC50 [25, 34]: > 100 µM
TGI ([25]; read-out: pTGI (converted)): > 100 µM
GI50 [26]: 22.9 µM
CC50 [26, 34]: > 100 µM
TGI ([26]; read-out: pTGI (converted)): > 100 µM
GI50 [27]: 8.71 µM
CC50 [27, 34]: > 100 µM
TGI ([27]; read-out: pTGI (converted)): > 100 µM
GI50 [28]: 4.9 µM
CC50 [28, 34]: 79.4 µM
TGI ([28]; read-out: pTGI (converted)): 22.4 µM
GI50 [29]: 22.9 µM
LC50 (50% lethal concentration) [29]: > 100 µM
TGI ([29]; read-out: pTGI (converted)): > 100 µM
GI50 [30]: 12 µM
LC50 [30]: > 100 µM
TGI ([30]; read-out: pTGI (converted)): 63.1 µM
GI50 [31]: 6.61 µM
CC50 [31, 34]: > 100 µM
TGI ([31]; read-out: pTGI (converted)): 39.8 µM
GI50 [32]: 13.2 µM
LC50 [32]: 72.4 µM
TGI ([32]; read-out: pTGI (converted)): 30.9 µM
GI50 [33]: 8.91 µM
CC50 [33, 34]: > 100 µM
TGI ([33]; read-out: pTGI (converted)): 44.7 µM
